From article PMC4520625 (Biochemistry, 2015)

What was measured:
[1] = target: N-terminal domain of galectin-9 (Homo sapiens, UniProt O00182); format: cell-based; conditions: CHO wild-type cells, 1 mM
galectin-3 = galectin-3 (Homo sapiens, UniProt P17931); experiment: Cell-based assay: inhibition of galectin-3 surface staining of SW480 cells; conditions: peptides at up to 1 mM
galectin-3 (full-length) = galectin-3 (full-length) (Homo sapiens, UniProt P17931); experiment: Isothermal titration calorimetry, full-length galectin-3; format: binding
Sequence of galectin-3 (full-length) (P17931 whole entry): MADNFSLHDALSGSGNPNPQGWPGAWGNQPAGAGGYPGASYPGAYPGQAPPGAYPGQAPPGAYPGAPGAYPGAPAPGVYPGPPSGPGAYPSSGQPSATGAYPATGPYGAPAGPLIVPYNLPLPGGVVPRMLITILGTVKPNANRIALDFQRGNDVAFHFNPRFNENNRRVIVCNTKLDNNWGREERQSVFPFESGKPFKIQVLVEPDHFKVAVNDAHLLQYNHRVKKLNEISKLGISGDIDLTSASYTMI

galectin-3 CRD = galectin-3 CRD (Homo sapiens, UniProt P17931); experiment: Isothermal titration calorimetry, galectin-3 CRD; format: binding
Sequence of galectin-3 CRD (P17931 118-248 limits assumed): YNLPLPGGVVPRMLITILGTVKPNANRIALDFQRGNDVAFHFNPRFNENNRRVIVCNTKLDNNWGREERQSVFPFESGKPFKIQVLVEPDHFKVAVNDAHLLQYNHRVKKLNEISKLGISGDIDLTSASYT

Sequence of N-terminal domain of galectin-9 (O00182 1-148): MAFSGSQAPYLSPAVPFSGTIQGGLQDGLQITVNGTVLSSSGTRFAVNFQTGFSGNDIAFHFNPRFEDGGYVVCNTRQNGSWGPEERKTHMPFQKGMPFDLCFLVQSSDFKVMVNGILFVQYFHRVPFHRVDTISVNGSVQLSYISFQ
Sequence of galectin-3 (P17931 whole entry): as the sequence (P17931 whole entry) above

Row | inhibition of galectin-9 binding to cells (in words) [1] | inhibition of galectin-3 binding to cells (in words) (galectin-3) | Kd (galectin-3 (full-length)) [µM] | n (stoichiometry) (galectin-3 (full-length); full-length galectin-3, ITC) | –TΔS (galectin-3 (full-length); full-length galectin-3, ITC) [kcal/mol] | –ΔH (galectin-3 (full-length); full-length galectin-3, ITC) [kcal/mol] | Ka (galectin-3 (full-length); full-length galectin-3, ITC, 25 °C, pH 7.2) | Kd (galectin-3 CRD) [µM] | n (stoichiometry) (galectin-3 CRD; galectin-3 CRD, ITC) | –TΔS (galectin-3 CRD; galectin-3 CRD, ITC) [kcal/mol] | –ΔG (galectin-3 CRD; galectin-3 CRD, ITC) [kcal/mol] | –ΔH (galectin-3 CRD; galectin-3 CRD, ITC) [kcal/mol] | Ka (galectin-3 CRD; galectin-3 CRD, ITC, 25 °C, pH 7.2) | SMILES
1 | inhibitory |  |  |  |  |  |  |  |  |  |  |  |  | OC[C@H]1O[C@@H](O[C@H]2[C@H](O)[C@@H](O)C(O)O[C@@H]2CO)[C@H](O)[C@@H](O)[C@H]1O (mixture of isomers) [Lac, lactose]
2 | inhibitory | less active than Lac |  |  |  |  |  |  |  |  |  |  |  | CC(=O)N[C@H]1C(O)O[C@H](CO)[C@H](O)[C@@H]1O (some centres unmarked) [GalNAc, N-acetylgalactosamine]
3 |  |  | 245 | 0.82 | 3.30 | 8.74 | 0.40 ×10^–4 M^–1 | 248 | 0.93 | 9.11 | 4.94 | 14.05 | 0.40 ×10^–4 M^–1 | CC(=O)N[C@H]1C(O)O[C@H](CO)[C@H](O)[C@@H]1O[C@@H]1O[C@H](CO)[C@H](O)[C@H](O)[C@H]1O (stereo partly drawn) [TF, 2-acetamido-2-deoxy-3-O-(β-D-galactopyranosyl)-D-galactopyranose]
